Structures can show the parent of a compound that is named as a salt. Where two headings read alike, the source gives them in different places.
How the values were obtained:
[1] = system: merlin-null Schwann cells; test: Primary assay: live cell protease assay (CellTiter-Fluor), cell viability; conditions: for Primary Assay (m +/− sd), cell viability: mean and SD of four assays
Description: (§3) Cell viability was measured with the CellTiter-Fluor Live Protease Assay (Promega). […] One way ANOVA Kurskal-Wallis test was used with a Dunn's Multiple Comparison post-test.
(§4) The compounds were tested at 10 uM in 8 replicates in a 384-well format using the live cell protease assay (CellTiter-Fluor) and the orthogonal ATP-based assay (CellTiter-GLO) (both from Promega). We tested the compounds on two Merlin-null Schwann cell lines, L1, (used in the LOPAC screen) at passages ranging from 13-23 and an independently-derived line, L2, tested at passage 20 and 21.

[2] = system: merlin-null Schwann cells; test: Propidium iodide and BrdU/7AAD flow cytometer cell cycle assays; format: cell-based, mouse
Description: FIGS. 9A-D. Phenotypic Proliferation Assays. (A) Merlin-null Schwann cells (384-well format) were treated with the indicated compounds and concentrations for 24 hours and labeled with EdU during the last 9 hours. Incorporation of EdU into S-phase cells was read on a Biotek H1 Hybrid reader. (B) The plate was also imaged with a Trophos high resolution fluorescence Plate Runner. (C). Merlin-null Schwann cells were grown in 6-well format and were treated with 5 uM compounds for 22 hours, then labeled with PI. The cell population profile is shown and was analyzed using the ModFit program. (D). Merlin-null Schwann cells were grown as in C but were labeled with BrdU during the final 3 hours of treatment then stained with 7AAD. The distribution of BrdU- and 7AAD-labelled cells is shown and was analyzed with Diva program. The BD Cantos II flow cytometer was used above.
In yet another aspect, identification of compounds that affect proliferation of Merlin-null mouse Schwann cells can be performed by conducting a Click-iT EdU Microplate Assay (Life Technologies) in the 384 well-plate format and then follow-up with BrdU/7AAD and propidium iodide flow cytometer assays. […] Fluorescence emission is measured on a Hybrid HT plate reader (FIG. 9A) as well as on a Trophos Plate RUNNER HD that captures images of the wells (FIG. 9B). […]

[3] = system: merlin-null Schwann cells; test: Orthogonal ATP-based luminescence cell viability assay (CellTiter-GLO); conditions: for Orthogonal Assay Average of two, cell viability: average of two assays with one cell line at P18-23
[4] = system: merlin-null Schwann cells; test: Apo-ONE Homogeneous caspase-3/7 assay; format: cell-based, mouse; conditions: 8 hours, 384-well format
Description: (§1) FIGS. 8A-C. Phenotypic Apoptosis Assays. (A). Merlin-null Schwann cells in a 384-well format were incubated with the indicated compounds for 8 hours. Caspase-3/7 activity was measure with Apo-ONE Homogeneous Assay (Promega). n=32 wells. (B). Merlin-null Schwann cells in a 6-well format were treated with compounds (10 uM) for 24 hours. Membrane asymmetry was detected with Violet Ratiometric assay and read on a BD Cantos II flow cytometer. (C). Population distribution for B is shown.
(§2) In yet another aspect, compounds may be identified which induce programmed cell death or inhibit proliferation of Merlin-null Schwann cells. Merlin-pathway assays may be conducted to identify the subset of compounds that modulate the activity of known merlin pathways. The effector caspase cascade is activated in many extrinsic and intrinsic cell death pathways^29. […] The effect of compounds on caspase-3 activity can be measured by first lysing the cells and centrifuging to pellet the debris. […] Enzyme activity may be measured on an Envision plate reader at Ex400 nm/Em505 nm. The enzyme activity may be calculated from a standard curve generated using recombinant caspase-3 enzyme (R&D System, Inc.) and expressed as fold-increase in activity. […] Transfer of phosphatidylserine and phosphatidylethanolamine from the inner to the outer leaflet of the plasma membrane changes the membrane potential that is detected by F2N12S. […]

[5] = system: normal nf2^flox2/flox2 Schwann cells; test: Selectivity assay: cell viability of normal Schwann cells; conditions: one assay with mouse nf2^flox2/flox2 Schwann cells at P2
Description: as §4

[6] = system: merlin-null Schwann cells; test: Violet Ratiometric Membrane Asymmetry Probe/Dead Cell Apoptosis assay (flow cytometer); format: cell-based, mouse; conditions: 10 uM, 24 hours, 6-well format
Description: as §1, §2

[7] = system: normal nf2^flox2/flox2 Schwann cells; conditions: 10 µM
Description: as §4

[8] = system: merlin-null Schwann cells; test: MultiTox-Fluor Multiplex Cytotoxicity Assay (assay validation and LOPAC pilot screen); format: cell-based, mouse; conditions: 50 μM; 384-well plate, 5,000 cells/well
Description: Merlin-null Schwann cells were seeded at 5,000 cells/well in an uncoated Corning Cell-Bind 384-well plate. A) Result of a rapamycin dose response study conducted with the MultiTox-Fluor assay is shown. B) Cell viability in the presence of 0.5% DMSO or 0.5% DMSO plus 50 μM rapamycin (RM) added 4 hours after plating was measured 24 hours later as described in the FIG. 3 legend.
A pilot screen of Sigma's LOPAC was conducted to test the reliability of our system. The 1280 compounds were tested at 10 μM in 0.5% DMSO in single wells. They were added 4 hours after cell plating and the MultiTox-Fluor assay was run 24 hours later. The positive control included cells treated with 50 μM rapamycin in 0.5% DMSO and the negative control included cells treated with 0.5% DMSO. The signals for live and dead protease activities were collected sequentially. […] The screen yielded 40 hits using a cut-off value equal to 80% of the live:dead signal of the rapamycin positive control which was equivalent to 50% of live cell signal (FIG. 5). The hits represent a spectrum of compounds that fall into 5 basic categories; 1) inhibitors of signaling kinases, 2) cell-cycle inhibitors, 3) pro-apoptotic agents, 4) receptor inhibitors and 5) modulators of cell metabolism.

[9] = system: merlin-null Schwann cells; conditions: 10 µM
[10] = system: merlin-null Schwann cells; conditions: 10 µM; remark: listed apart in the source
Description: as §3, §4

[11] = 10 uM, 8 replicates, 384 well plate, two independently derived merlin-null Schwann cell lines at P13-23

## N#C/C(=C\c1ccc(-c2cc(Cl)ccc2Cl)o1)C(=O)Nc1cccc2ncccc12 [AGK2, 2-Cyano-3-[5-(2,5-dichlorophenyl)-2-furanyl]-N-5-quinolinyl-2-propenamide]
[1]; 10 uM, 24 hours, lines L1, L2 at P12-18, CellTiter-Fluor
  cell viability: < 50 % of DMSO control
[1]; [11]
  Primary Assay (m +/− sd), cell viability: 65 +/− 14 % of DMSO Control
[2]; 24 hours of drug treatment and S-phase labelling for the final 3 hours
  anti-proliferative effects on the cells: did not reveal clear anti-proliferative effects
[3]; 10 uM
  Orthogonal Assay Average of two, cell viability: 78.6 % of DMSO Control
[3]; Merlin-null Schwann cells L1P12
  activity on viability in orthogonal screen and dose response: confirmed
[4]
  mechanism of apoptotic death with respect to caspase-3/7 activity: caspase3/7-independent
[5]; 10 uM
  Selectivity Assay, cell viability: 42 % of DMSO Control

## chelerythrine chloride
[6]
  apoptotic death (Q1+Q3) of cells: 93%

## Ic1ccccc1CNC1C2CCN(CC2)C1C(c1ccccc1)c1ccccc1 [L-703,606 oxalate salt hydrate, cis-2-(Diphenylmethyl)-N-[(2-iodophenyl)methyl]-1-azabicyclo[2.2.2]octan-3-amine]
[1]; [11]
  Primary Assay (m +/− sd), cell viability: 62 +/− 11 % of DMSO Control
[7]
  Selectivity Assay, cell viability: 33 % of DMSO Control
[3]; 10 uM
  Orthogonal Assay Average of two, cell viability: 40.6 % of DMSO Control

## CO[C@H]1C[C@@H]2CC[C@@H](C)[C@@](O)(O2)C(=O)C(=O)N2CCCC[C@H]2C(=O)O[C@H]([C@H](C)C[C@@H]2CC[C@@H](O)[C@H](OC)C2)CC(=O)[C@H](C)/C=C(\C)[C@@H](O)[C@@H](OC)C(=O)[C@H](C)C[C@H](C)/C=C/C=C/C=C/1C [Rapamycin, rapamycin]
[1]; 50 uM, two merlin-null Schwann cell lines at P13-23
  Primary Assay (m +/− sd), cell viability: 18 +/− 3 % of DMSO Control
[3]; 50 uM
  Orthogonal Assay Average of two, cell viability: 10.6 % of DMSO Control
[5]; 50 uM
  Selectivity Assay, cell viability: 30 % of DMSO Control
[8]
  Viability of cells (live cell protease): 20+/−1.4 % of the DMSO control

## CC(C)C(=O)Nc1ncc(-c2cc(C(F)F)nn2-c2c(Cl)cccc2Cl)s1 [BMS-5]
[2]; 5 uM, 22 hours
  PI labeling and BrdU cell cycle profiles: accumulate in G2/M
[4]
  mechanism of apoptotic death with respect to caspase-3/7 activity: caspase3/7-independent
[9]
  Orthogonal Assay Average of two, cell viability: 63.2 % of DMSO Control
[10]
  Primary Assay (m +/− sd), cell viability: 65 +/− 14 % of DMSO Control
